The source of these data is patent US20240150287A1, “N-(BENZOYL)-PHENYLALANINE COMPOUND, PHARMACEUTICAL COMPOSITION CONTAINING SAME, AND USE THEREOF” (Hangzhou Apeloa Medicine Research Institute Co., Ltd., priority 2021, published 2024).

For orientation: IC50 means the concentration that gives 50% inhibition.

For the test, the target named is recombinant human integrin α4β7 (binding to recombinant human MAdCAM-1) (Homo sapiens (Human), UniProt P13612+P26010). In words: MAdCAM-1/α4β7 integrin binding inhibition activity evaluation test (α4β7-MAdCAM-1 ELISA). Conditions: plate-coated recombinant human MAdCAM-1, recombinant human α4β7, 2 h room temperature, free form of compound. The protocol: EXAMPLE: MADCAM-1/α4β7 INTEGRIN BINDING INHIBITION ACTIVITY EVALUATION TEST (α4β7-MADCAM-1 ELISA)
Chain of recombinant human integrin α4β7 (binding to recombinant human MAdCAM-1) (P13612 34-970): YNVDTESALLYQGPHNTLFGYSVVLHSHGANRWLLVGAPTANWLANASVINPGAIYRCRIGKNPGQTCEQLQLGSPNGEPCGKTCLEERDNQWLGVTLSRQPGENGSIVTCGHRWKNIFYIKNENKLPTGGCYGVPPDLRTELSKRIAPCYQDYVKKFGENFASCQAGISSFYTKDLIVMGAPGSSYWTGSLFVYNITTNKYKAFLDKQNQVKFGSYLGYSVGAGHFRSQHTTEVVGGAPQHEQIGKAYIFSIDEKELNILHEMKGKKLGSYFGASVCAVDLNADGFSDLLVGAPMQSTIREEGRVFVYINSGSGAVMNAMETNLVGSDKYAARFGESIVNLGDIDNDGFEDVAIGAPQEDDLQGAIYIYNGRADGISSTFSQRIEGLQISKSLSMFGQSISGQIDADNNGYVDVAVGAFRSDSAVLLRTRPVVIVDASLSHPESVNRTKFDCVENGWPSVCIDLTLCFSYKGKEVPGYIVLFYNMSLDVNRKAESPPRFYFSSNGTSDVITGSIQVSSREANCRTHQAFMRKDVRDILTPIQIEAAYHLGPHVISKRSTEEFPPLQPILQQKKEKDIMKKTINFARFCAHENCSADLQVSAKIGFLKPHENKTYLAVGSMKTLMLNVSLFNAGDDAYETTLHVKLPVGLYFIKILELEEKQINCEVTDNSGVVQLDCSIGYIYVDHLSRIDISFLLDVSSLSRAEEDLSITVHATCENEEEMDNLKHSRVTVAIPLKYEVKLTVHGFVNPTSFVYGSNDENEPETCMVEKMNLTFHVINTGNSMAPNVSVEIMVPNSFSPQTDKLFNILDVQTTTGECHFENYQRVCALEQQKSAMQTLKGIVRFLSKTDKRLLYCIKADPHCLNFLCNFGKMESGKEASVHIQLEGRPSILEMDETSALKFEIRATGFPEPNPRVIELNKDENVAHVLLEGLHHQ
Chain of recombinant human integrin α4β7 (binding to recombinant human MAdCAM-1) (P26010 20-723): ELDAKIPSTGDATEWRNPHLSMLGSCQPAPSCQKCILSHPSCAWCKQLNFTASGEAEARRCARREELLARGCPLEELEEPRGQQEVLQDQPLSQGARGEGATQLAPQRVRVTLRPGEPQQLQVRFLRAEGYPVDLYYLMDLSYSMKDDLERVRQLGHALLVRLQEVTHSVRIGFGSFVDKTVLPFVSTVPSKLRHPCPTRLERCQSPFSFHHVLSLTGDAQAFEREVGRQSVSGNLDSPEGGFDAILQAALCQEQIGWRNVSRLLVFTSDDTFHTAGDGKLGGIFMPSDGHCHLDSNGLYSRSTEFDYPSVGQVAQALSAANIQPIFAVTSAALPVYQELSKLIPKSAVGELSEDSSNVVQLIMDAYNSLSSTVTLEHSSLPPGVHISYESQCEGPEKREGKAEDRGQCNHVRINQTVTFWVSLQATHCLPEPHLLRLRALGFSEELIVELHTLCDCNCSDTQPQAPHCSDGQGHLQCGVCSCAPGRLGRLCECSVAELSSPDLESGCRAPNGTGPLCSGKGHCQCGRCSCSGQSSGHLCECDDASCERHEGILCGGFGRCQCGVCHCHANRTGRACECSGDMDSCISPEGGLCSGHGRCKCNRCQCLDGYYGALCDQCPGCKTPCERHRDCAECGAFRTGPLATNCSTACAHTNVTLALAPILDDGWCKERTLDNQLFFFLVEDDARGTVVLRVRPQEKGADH
Coat the 96-well microplate (Costar) with 50 μL of recombinant human MAdCAM-1 (R&D Systems) solution per well, and incubate overnight (12-18 hours) at 4° C. Wash three times with 150 μL of TBS buffer per well. Block plate with 150 μL per well with blocking buffer for 1 h at 37° C. Wash three times with 150 μL of TBS buffer per well. Dilute the recombinant human integrin α4β7 (R&D Systems) with TBS buffer containing 0.1% bovine serum albumin (BSA), then add to the 96 well plate with 50 μL per well. Add 1 μL of test compound or DMSO, cover, incubate at room temperature for 2 h, wash three times with 150 μL of TBS buffer per well. Dilute the anti-β7 antibody (R&D Systems) with 0.1% BSA TBS buffer, then add to the 96 well plate with 50 μL per well, cover, incubate at room temperature for 1 h, wash three times with 150 μL of TBS buffer per well. Add 50 μL of streptavidin-HRP (R&D Systems) per well, incubate at room temperature for 20 min, wash three times with 150 μL of TBS buffer per well. Add 50 μL of TMB substrate solution (Sigma) per well, incubate at room temperature for 5-30 min, and add 25 μL of stop solution per well to stop the reaction. Finally, measure absorbance at 450 nm with microplate reader (SpectraMax 340PC. Molecular Devices). Repeat the test to find the binding rate of cells at each concentration when the absorbance of the well without the test substance is used as 100%, and calculate the concentration IC50 that causes 50% binding inhibition and summarize the results in Table 1.
It should be stated that, as a test compound, the free form of the compound synthesized in the above examples is used.
A general note: An ELISA detects its analyte on a solid surface through an enzyme-linked reagent.
On to `CN(C)c1ccc2c(c1)C1(CC1)C(=O)N2c1ccc(C[C@H](NC(=O)c2c(F)cccc2Cl)C(=O)O)cc1` [Example 12, (S)-2-(2-chloro-6-fluorobenzamide)-3-(4-(5′-(dimethylamino)-2′-oxospiro[cyclopropane-1,3′-indoline]-1′-yl)phenyl)propionic acid], for which the IC50 is 4.15 nM.
Under `O=C(N[C@@H](Cc1ccc(N2C(=O)C3(CC3)c3ccc(F)cc32)cc1)C(=O)O)c1c(F)cccc1Cl` [Example 13] stands 8.02 nM; under `O=C(N[C@@H](Cc1ccc(N2C(=O)C3(CC3)c3cccc(F)c32)cc1)C(=O)O)c1c(F)cccc1Cl` [Example 14, (S)-2-(2-chloro-6-fluorobenzamide)-3-(4-(7-fluoro-2′-oxospiro[cyclopropane-1,3′-indoline]-1′-yl)phenyl)propionic acid], 6.21 nM; under `O=C(N[C@@H](Cc1ccc(N2C(=O)C3(CC3)c3ccc(F)c(F)c32)cc1)C(=O)O)c1c(F)cccc1Cl` [Example 15, (S)-2-(2-chloro-6-fluorobenzamide)-3-(4-(6′,7′-difluoro-2′-oxospirino[cyclopropane-1,3′-indoline]-1′-yl)phenyl)propionic acid], 5.62 nM.
On to `O=C(N[C@@H](Cc1ccc(N2C(=O)C3(CC3)c3cccnc32)cc1)C(=O)O)c1c(Cl)cccc1Cl` [Example 16, (S)-2-(2,6-dichlorobenzamido)-3-(4-(2′-oxospiro[cyclopropane-1,3′-pyrrolo[2,3-b]pyridine]-1′(2′H)-yl)phenyl)propionic acid], for which the IC50 came to 0.75 nM.
As for `O=C(N[C@@H](Cc1ccc(N2C(=O)C3(CC3)c3cccc(Cl)c32)cc1)C(=O)O)c1c(Cl)cc(Cl)cc1Cl` [Example 17, (S)-3-(4-(7′-chloro-2′-oxospiro[cyclopropane-1,3′-indoline]-1′-yl)phenyl)-2-(2,4,6-trichlorobenzoylamino)propionic acid], the IC50 was found to be 64.2 nM.
As for `O=C(N[C@@H](Cc1ccc(N2C(=O)C3(CC3)c3cccc(Cl)c32)cc1)C(=O)O)c1c(Cl)cc(N2CCOCC2)cc1Cl` [Example 19, (S)-3-(4-(7′-chloro-2′-oxospiro[cyclopropane-1,3′-indoline]-1′-yl)phenyl)-2-(2,6-dichloro-4-morpholinobenzoylamino)propionic acid], the figure is 11.4 nM; as for `O=C(N[C@@H](Cc1ccc(N2C(=O)C3(CC3)c3cccc(Cl)c32)cc1)C(=O)O)c1c(Cl)cc(N2CC3CC2CO3)cc1Cl` (some centres unmarked) [Example 20], 4.15 nM.
With `O=C(N[C@@H](Cc1ccc(N2C(=O)C3(CC3)c3cccc(Cl)c32)cc1)C(=O)O)c1c(Cl)cc(N2CCC(N3CCOCC3)CC2)cc1Cl` [Example 21, (S)-3-(4-(7′-chloro-2′-oxospiro[cyclopropane-1,3′-indoline]-1′-yl)phenyl)-2-(2,6-dichloro-4-(4-morpholinopiperidin-1-yl)benzoylamino)propionic acid], the IC50 was determined as 23.7 nM.
Turning to `Cn1c(=O)n(-c2ccc(C[C@H](NC(=O)c3c(F)cccc3Cl)C(=O)O)cc2)c2c(Cl)cccc21` [Example 22, (S)-3-(4-(7-chloro-3-methyl-2-oxo-2,3-dihydro-1H-benzo-1H-imidazol-1-yl)phenyl)-2-(2-chloro-6-fluorobenzamide)propionic acid], the IC50 amounted to 1.19 nM.
On to `O=C(N[C@@H](Cc1ccc(-n2c(=O)n(C3CC3)c3cc(Cl)ccc32)cc1)C(=O)O)c1c(Cl)cccc1Cl` [Example 23, (S)-3-(4-(5-chloro-3-cyclopropyl-2-oxo-2,3-dihydro-1H-benzo[d]imidazol-1-yl)phenyl)-2-(2,6-dichlorobenzamido)propionic acid], for which the IC50 amounted to 143 nM.
Under `O=C(N[C@@H](Cc1ccc(-n2c(=O)n(C3CC3)c3ccc(Cl)cc32)cc1)C(=O)O)c1c(Cl)cccc1Cl` [Example 24, (S)-3-(4-(6-chloro-3-cyclopropyl-2-oxo-2,3-dihydro-1H-benzo[d]imidazol-1-yl)phenyl)-2-(2,6-dichlorobenzamido)propionic acid] stands 5.67 nM; under `O=C(N[C@@H](Cc1ccc(-n2c(=O)n(C3CC3)c3cccc(Cl)c32)cc1)C(=O)O)c1c(Cl)cccc1Cl` [Example 25, (S)-3-(4-(7-chloro-3-cyclopropyl-2-oxo-2,3-dihydro-1H-benzo[d]imidazol-1-yl)phenyl)-2-(2,6-dichlorobenzamido)propionic acid], 7.5 nM.
Under `Cn1c(=S)n(-c2ccc(C[C@H](NC(=O)c3c(F)cccc3Cl)C(=O)O)cc2)c2c(Cl)cccc21` [Example 26, (S)-3-(4-(7-chloro-3-methyl-2-thio-2,3-dihydro-1H-benzo[d]imidazol-1-yl)phenyl)-2-(2-chloro-6-fluorobenzoylamino)propionic acid] stands 160 nM; under `O=C(N[C@@H](Cc1ccc(-n2c(=O)n(C3CC3)c3cccc(F)c32)cc1)C(=O)O)c1c(F)cccc1Cl` [Example 27, (S)-2-(2-chloro-6-fluorobenzoylamino)-3-(4-(3-cyclopropyl-7-fluoro-2-oxo-2,3-dihydro-1H-benzo [d]imidazol-1-yl)phenyl)propionic acid], 8.81 nM; under `O=C(N[C@@H](Cc1ccc(-n2c(=O)n(C3CCOCC3)c3cccc(Cl)c32)cc1)C(=O)O)c1c(F)cccc1Cl` [Example 28, (S)-3-(4-(7-chloro-2-oxo-3-(tetrahydro-2H-pyran-4-yl)-2,3-dihydro-1H-benzo[d]imidazol-1-yl)phenyl)-2-(2-chloro-6-fluorobenzoylamino)propionic acid], 10.9 nM.
For the compound `CN1CCC(n2c(=O)n(-c3ccc(C[C@H](NC(=O)c4c(F)cccc4Cl)C(=O)O)cc3)c3c(Cl)cccc32)CC1` [Example 29, (S)-3-(4-(7-chloro-3-(1-methylpiperidin-4-yl)-2-oxo-2,3-dihydro-1H-benzo[d]imidazol-1-yl)phenyl)-2-(2-chloro-6-fluorobenzoylamino)propionic acid], the IC50 was determined as 18.1 nM.
Under `Cn1c(=O)n(-c2ccc(C[C@H](NC(=O)c3c(F)cccc3Cl)C(=O)O)cc2)c2c(F)cc(F)cc21` [Example 31, (S)-2-(2-chloro-6-fluorobenzoylamino)-3-(4-(5,7-difluoro-3-methyl-2-oxo-2,3-dihydro-H-benzo[d]imidazol-1-yl)phenyl)propionic acid] stands 5.34 nM.
Under `Cn1c(=O)n(-c2ccc(C[C@H](NC(=O)c3c(F)cccc3Cl)C(=O)O)cc2)c2cc(Cl)c(Cl)cc21` [Example 32, (S)-2-(2-chloro-6-fluorobenzoylamino)-3-(4-(5,6-dichloro-3-methyl-2-oxo-2,3-dihydro-H-benzo[d]imidazol-1-yl)phenyl)propionic acid] stands 4.19 nM; under `Cn1c(=O)n(-c2ccc(C[C@H](NC(=O)c3c(F)cccc3Cl)C(=O)O)cc2)c2c(F)c(F)ccc21` [Example 33, (S)-2-(2-chloro-6-fluorobenzoylamino)-3-(4-(6,7-difluoro-3-methyl-2-exo-2,3-dihydro-1H-benzo[d]imidazol-1-yl)phenyl)propionic acid], 2.7 nM; under `Cn1c(=O)n(-c2ccc(C[C@H](NC(=O)c3c(F)cccc3Cl)C(=O)O)cc2)c2ccc(F)c(F)c21` [Example 34, (S)-2-(2-chloro-6-fluorobenzoylamino)-3-(4-(4,5-difluoro-3-methyl-2-oxo-2,3-dihydro-1H-benzo[d]imidazol-1-yl)phenyl)propionic acid], 10.5 nM.
For the compound `COc1cccc2c1n(-c1ccc(C[C@H](NC(=O)c3c(F)cccc3Cl)C(=O)O)cc1)c(=O)n2C` [Example 35, (S)-2-(2-chloro-6-fluorobenzoylamino)-3-(4-(7-methoxy-3-methyl-2-oxo-2,3-dihydro-1H-benzo[d]imidazol-1-yl)phenyl)propionic acid], the IC50 was found to be 0.45 nM.
On to `CN(C)c1ccc2c(c1)n(-c1ccc(C[C@H](NC(=O)c3c(F)cccc3Cl)C(=O)O)cc1)c(=O)n2C` [Example 36, (S)-2-(2-chloro-6-fluorobenzoylamino)-3-(4-(6-(dimethylamino)-3-methyl-2-oxo-2,3-dihydro-1H-benzo[d]imidazol-1-yl)phenyl)propionic acid], for which the IC50 was 1.51 nM.
Turning to `CN(C)c1ccc2c(c1)n(C)c(=O)n2-c1ccc(C[C@H](NC(=O)c2c(F)cccc2Cl)C(=O)O)cc1` [Example 37, (S)-2-(2-chloro-6-fluorobenzoylamino)-3-(4-(5-(dimethylamino)-3-methyl-2-oxo-2,3-dihydro-1H-benzo[d]imidazol-1-yl)phenyl)propionic acid], the IC50 came to 5.09 nM.
With `Cn1c(=O)n(-c2ccc(C[C@H](NC(=O)c3c(Cl)cc(Cl)cc3Cl)C(=O)O)cc2)c2c(Cl)cccc21` [Example 38, (S)-3-(4-(7-chloro-3-methyl-2-oxo-2,3-dihydro-1H-benzo[d]imidazol-1-yl)phenyl)-2-(2,4,6-trichlorobenzamido)propionic acid], the IC50 was determined as 27.9 nM.
Under `Cn1c(=O)n(-c2ccc(C[C@H](NC(=O)c3c(Cl)cc(N4CCOCC4)cc3Cl)C(=O)O)cc2)c2c(Cl)cccc21` [Example 39] stands 3.65 nM.
